From patent US20250314644A1, “METHODS COMPRISING DETECTION OF ADP-HEPTOSE” (CHILDREN'S HOSPITAL MEDICAL CENTER, priority 2023, published 2025)

How the values were obtained:
healthy BM cells = assay: Xenograft of healthy cells in NSG mice treated with ADP-heptose; type: in vivo, human; settings: immunocompromised mice
Experimental: NOD.Cg-Prkdc^scidIl2rg^tm1Wj1/SzJ (NSG)^75 were bred and maintained by the CCHMC Comprehensive Mouse Core. For patient derived xenografts, NSG mice (sub-lethally conditioned with 2 Gy of whole-body irradiation) were injected tail vein with healthy CD34+ cells (1×10^6 cells per mouse) and MDS patient cells (5×10^6 cells per mouse) in 200 μl of sterile PBS. Mice were then given sterile water or ADP-heptose (0.5 mg/kg) dissolved in sterile water at the indicated times. Mice were monitored for human engraftment in BM aspirates Briefly, 1×10^6 BM cells from each sample were incubated with huCD45 (Cat no. 555485, BDPharmingen) and huCD33 (Cat no. 555450, BDPharmingen) antibodies diluted 1:100 in a solution of PBS, 0.2% FBS for 30 minutes on ice. Cells were washed once with PBS, resuspended in PBS with 0.2% FBS, and immediately analyzed by flow cytometry.

WT HSPCs = assay: NF-κB activation in vitro (NF-κB^GFP reporter, immunoblot); type: cell-based, mouse
Text: (§1) Because intestinal epithelial injury and dysbiosis mediate the expansion of Dnmt3a-mutant pre-leukemic cells was observed, Applicant evaluated whether this occurs because of ADP-heptose-mediated ALPK1 signaling. Indeed, Dnmt3a^−/− HSCs were exquisitely sensitive to ADP-heptose stimulation in vitro. […] Activation of NF-κB in Dnmt3a^−/− HSPCs occurred following treatment with ADP-heptose (FIG. 3L). […] Constitutive combined activation of NF-κB and MAPK, such as during chronic inflammation with IL-1β, promotes differentiation of HSCs at the expense of self-renewal, leading to depletion of the HSC population.
(§2) Dnmt3a^f/f and MxCre^+ (obtained from H. Lee Grimes Laboratory, CCHMC)^33, Alpk1^−/− (11 bp deletion in exon 3, C57BL/6N-Alpk1^em1Fsha/J, Cat no. 032561, Jackson Laboratory), Tifa^−/− (gift from Jun-Ichiro Inoue, University of Tokyo, Japan), and UBC-GFP (C57BL/6-Tg(UBC-GFP)30Scha/J, Cat no. 004353, Jackson Laboratory) mice were maintained on CD45.2+C57BL/6 background. NF-kB^GFP reporter mice were generously provided by C. Jobin. Throughout the study, CD45.1+B6.SJL-Ptprc^a (BoyJ) mice were used as recipients for BM transplantation experiments. […] Mice were bred, housed and monitored daily by laboratory staff and veterinary personnel for health and activity. […]
(§3) Protein concentration was evaluated by bicinchoninic acid (BCA) assay (Pierce, Cat #23225). […]

Dnmt3a^−/− HSCs = assay: as above; type: cell-based, mouse; settings: NF-κB^GFP HSCs compared to WT
Text: as §1, §2, §3

Compound: Nc1ncnc2c1ncn2[C@@H]1O[C@H](COP(=O)(O)OP(=O)(O)O[C@@H]2O[C@H]([C@H](O)CO)[C@@H](O)[C@H](O)[C@@H]2O)[C@@H](O)[C@H]1O [ADP-heptose, ADP-D-glycero-β-D-manno-heptose]
- engraftment of healthy BM cells (healthy BM cells): no effect
- concentration of ADP-heptose required to induce NF-κB activation (WT HSPCs): > 1 µM
- NF-κB activation (NF-κB^GFP reporter) (Dnmt3a^−/− HSCs): robust and sustained NF-κB activation
